Values after ≈ are worked out from the molar mass of the structure shown. Values belong to the compound of their own block, whether it stands above or below them.
What was measured:
Assay in all cases: ≥ marks a high value that may be exact or a test limit, other limits are often not marked, values filed in µg/mL are converted to µM
[1] = test system: Candida albicans ATCC 10231
Candida krusei CBS 573 = test system: Candida krusei CBS 573
[2] = test system: Candida parapsilosis CBS 604
[3] = test system: Saccharomyces cerevisiae SZMC 0644
[4] = test system: Candida albicans KCTC 7270
[5] = test system: Escherichia coli CCARM 1229
[6] = test system: Escherichia coli CCARM 1238
[7] = test system: Pseudomonas aeruginosa 4007
[8] = test system: Pseudomonas aeruginosa 4891
[9] = test system: Staphylococcus aureus CCARM 3090
[10] = test system: Staphylococcus aureus CCARM 3518
[11] = test system: Trichosporon beigelii KCTC 7707
[12] = test system: Klebsiella aerogenes ATCC 13048
[13] = test system: Klebsiella pneumoniae ATCC 700603
[14] = test system: Lacticaseibacillus casei HZ1
[15] = test system: Listeria monocytogenes ATCC 7611
Saccharomyces cerevisiae = test system: Saccharomyces cerevisiae
[16] = test system: Staphylococcus aureus ATCC 29213

MIC [1]: > 65.2 µM
MIC (Candida krusei CBS 573): ≥ 65.2 µM
MIC [2]: ≥ 65.2 µM
MIC [3]: ≥ 65.2 µM
Structure (SMILES): CC[C@H](C)[C@H](NC(=O)[C@@H](NC(=O)[C@H](CCCCN)NC(=O)[C@H](CO)NC(=O)[C@H](CCCCN)NC(=O)[C@H](CC(=O)O)NC(=O)[C@H](CO)NC(=O)[C@@H]1CCCN1C(=O)CNC(=O)[C@H](CO)NC(=O)[C@H](Cc1cnc[nH]1)NC(=O)[C@H](Cc1ccc(O)cc1)NC(=O)[C@@H](N)CCCCN)C(C)C)C(=O)N[C@@H](CO)C(=O)O [KYHSGPSDKSKVIS]

MIC [4]: 16 µM (≈ 33.7 µg/mL)
MIC [5]: 2 µM (≈ 4.21 µg/mL)
MIC [6]: 2 µM (≈ 4.21 µg/mL)
MIC [7]: 2 µM (≈ 4.21 µg/mL)
MIC [8]: 4 µM (≈ 8.42 µg/mL)
MIC [9]: 4 µM (≈ 8.42 µg/mL)
MIC [10]: 4 µM (≈ 8.42 µg/mL)
MIC [11]: 8 µM (≈ 16.8 µg/mL)
Structure (SMILES): CC[C@H](C)[C@H](NC(=O)[C@H](CC(C)C)NC(=O)[C@H](CCCCN)NC(=O)[C@@H](NC(=O)[C@H](C)NC(=O)[C@H](CCC(=O)O)NC(=O)[C@H](Cc1cnc[nH]1)NC(=O)[C@@H](NC(=O)[C@H](CCCCN)NC(=O)[C@H](CCC(N)=O)NC(=O)[C@H](Cc1ccccc1)NC(=O)[C@@H](NC(=O)[C@H](CCCCN)NC(=O)[C@H](CCCCN)NC(=O)[C@H](CC(C)C)NC(=O)[C@H](C)NC(=O)[C@H](CC(N)=O)NC(=O)[C@@H](N)CC(C)C)C(C)C)[C@@H](C)CC)[C@@H](C)CC)C(N)=O [LNALKKVFQKIHEAIKLI]

MIC [12]: ≥ 64 µM
MIC [13]: > 256 µM
MIC [14]: ≥ 32 µM
MIC [15]: 4 µM (≈ 9.79 µg/mL)
MIC (Saccharomyces cerevisiae): ≥ 256 µM
MIC [16]: 4 µM (≈ 9.79 µg/mL)
Structure (SMILES): CC(C)C[C@H](NC(=O)[C@H](Cc1ccccc1)NC(=O)[C@H](CCCCN)NC(=O)[C@H](Cc1ccccc1)NC(=O)[C@H](Cc1ccccc1)NC(=O)[C@H](Cc1cnc[nH]1)NC(=O)[C@@H](NC(=O)[C@H](Cc1c[nH]c2ccccc12)NC(=O)[C@@H](NC(=O)[C@H](CO)NC(=O)[C@@H]1CCCN1C(=O)[C@H](CC(C)C)NC(=O)[C@H](Cc1ccccc1)NC(=O)[C@H](CC(C)C)NC(=O)[C@H](CCCCN)NC(=O)[C@H](CC(C)C)NC(=O)[C@@H]1CCCN1C(=O)[C@H](CC(N)=O)NC(=O)CN)[C@@H](C)O)C(C)C)C(=O)N[C@@H](CCCN=C(N)N)C(=O)O [GNPLKLFLPSTWVHFFKFLR]
